Assay results published in patent publication US9603367B2, “Pesticidal mixtures including spiroheterocyclic pyrrolidine diones” (priority 2012, dated 2017).

What was measured:
[1] = tested on: Myzus persicae (Green Peach Aphid); experiment: Myzus persicae (Green Peach Aphid) feeding/residual contact activity, preventive; sprayed sunflower leaf discs; assay type: in vivo; details: Pirimicarb alone
Excerpt: (§1) A synergistic effect exists whenever the action of an active ingredient combination is greater than the sum of the actions of the individual components.
(§2) The action to be expected E for a given active ingredient combination obeys the so-called COLBY formula and can be calculated as follows (COLBY, S. R. “Calculating synergistic and antagonistic responses of herbicide combination”. Weeds, Vol. 15, pages 20-22; 1967): […]
(§3) ppm=milligrams of active ingredient (=a.i.) per liter of spray mixture
(§4) X=% action by active ingredient A) using p ppm of active ingredient
(§5) Y=% action by active ingredient B) using q ppm of active ingredient.
(§6) According to COLBY, the expected (additive) action of active ingredients A)+B) using p+q ppm of active ingredient is If the action actually observed (O) is greater than the expected action (E), then the action of the combination is super-additive, i.e. there is a synergistic effect. In mathematical terms the synergism factor SF corresponds to O/E. In the agricultural practice an SF of ≧1.2 indicates significant improvement over the purely complementary addition of activities (expected activity), while an SF of ≦0.9 in the practical application routine signals a loss of activity compared to the expected activity.
Myzus persicae (Green Peach Aphid): feeding/residual contact activity, preventive
Sunflower leaf discs were placed on agar in a 24-well microtiter plate and sprayed with the DMSO test solutions of Mixtures (as provided by Table 45). After drying, the leaf discs were infested with an aphid population of mixed ages. After an incubation period of 6 DAT (days after treatment), samples were checked for mortality.

[2] = tested on: Tetranychus urticae (Two-Spotted Spider Mite); experiment: Tetranychus urticae (Two-Spotted Spider Mite) feeding/contact activity, preventive; sprayed bean leaf discs; assay type: in vivo; details: Pirimicarb alone
Excerpt: as §1, §2, §3, §4, §5, §6
Tetranychus urticae (Two-Spotted Spider Mite): feeding/contact activity, preventive
Bean leaf discs on agar in 24-well microtiter plates were sprayed with the DMSO test solutions of certain Mixtures (as provided by Table 45). After drying, the leaf discs were infested with mite populations of mixed ages. 8 days later, discs were checked for mortality against mobile stages.

SMILES: Cc1nc(N(C)C)nc(OC(=O)N(C)C)c1C [Pirimicarb]
- AVERAGE DEAD IN % AFTER 6 DAYS, Pirimicarb ([1]; 12.5 PPM AI, 6 DAT): 0%
- AVERAGE DEAD IN % AFTER 6 DAYS, Pirimicarb ([1]; 25 PPM AI, 6 DAT): 17.5%
- AVERAGE DEAD IN % AFTER 6 DAYS, Pirimicarb ([1]; 25 PPM AI, 6 DAT (Table 47)): 17.5%
- AVERAGE DEAD IN % AFTER 6 DAYS, Pirimicarb ([1]; 50 PPM AI, 6 DAT): 65%
- AVERAGE DEAD IN % AFTER 6 DAYS, Pirimicarb ([1]; 100 PPM AI, 6 DAT): 87.5%
- AVERAGE DEAD IN % AFTER 6 DAYS, Pirimicarb ([1]; 200 PPM AI, 6 DAT): 100%
- AVERAGE DEAD IN % AFTER 8 DAYS, Pirimicarb ([2]; 25 PPM AI, mobile stages): 0%
- AVERAGE DEAD IN % AFTER 8 DAYS, Pirimicarb ([2]; 50 PPM AI, mobile stages): 0%
- AVERAGE DEAD IN % AFTER 8 DAYS, Pirimicarb ([2]; 100 PPM AI, mobile stages): 0%
- AVERAGE DEAD IN % AFTER 8 DAYS, Pirimicarb ([2]; 200 PPM AI, mobile stages (Table 48)): 0%
- AVERAGE DEAD IN % AFTER 8 DAYS, Pirimicarb ([2]; 200 PPM AI, mobile stages (Table 49)): 0%
- AVERAGE DEAD IN % AFTER 8 DAYS, Pirimicarb ([2]; 400 PPM AI, mobile stages): 0%
